Results on 5 sequences are retold here after patent US12527846B2, “Immunodominant proteins and fragments in multiple sclerosis” (UNIVERSITÄT ZÜRICH, priority 2018, dated 2026).

In experiment [1] the test system is TCC21.1. Nature of the experiment: Proliferation of TCC21.1 in response to GDP-L-fucose synthase peptides presented by autologous APCs. It is filed as cell-based, human. To be noted: 15-mer peptides overlapping by 10 AAs, presented by autologous PBMCs.
For experiment [2], the system named is TCC14. In words: Cytokine secretion of TCC14 on recognition of the RASGRP2 peptide. Format: cell-based, human. The following applies: data not shown.
Experiment [3] deals with TCC14. To be noted: read-out: EC50 (antigen avidity); dose titration, BLS DR2b, proliferation after 72 h.
Experiment [4] relates to TCC21.1. Format: cell-based, human. The method, then: TCC21.1 was then tested with the complete decapeptide positional scanning library (200 mixtures; i.e. mixtures representing the 10 positions of a 10-mer and in each of the fixed positions one of the 20 L-amino acids), presented by BCL expressing DRB1*15:01 class II molecules. A similar response pattern was obtained with IL-10 release. Next, a biometrical analysis scoring matrix was generated by assigning numerical values to the stimulatory potential of each of the 20 defined AAs in each of the ten positions of the decapeptide library as previously described (Zhao et al., 2001). Here, the values were calculated as the log base 10 of the median GM-CSF (pg/ml) secretion of three independent experiments in the presence of mixtures, minus the secretion in the absence of mixtures (FIG. 3B). Based on a model of independent contribution of individual AAs to peptide antigen recognition, the predicted stimulatory score of a given peptide is the sum of the matrix values of each AA contained in the peptide at each position (Zhao et al., 2001). […] Using the new “harmonic boost” frame 1 and frame 2 matrices, all natural overlapping 10-mers peptides derived from the UniProt human protein database were scored and ranked as schematically shown in FIG. 2. […]

Experiment [5] has as its system TCC21.1. Nature of the experiment: Intracellular cytokine staining of TCC21.1 after peptide stimulation. It is filed as cell-based, human. The method, then: Next, the response of TCC21.1 to GDP-L-fucose synthase peptides presented by autologous irradiated PBMCs and BCL was characterized. GDP-L-fucose synthase peptides presented by the two types of APCs were able to induce proliferation. The functional phenotype of this response was also analyzed. […] Unexpectedly, when peptides were presented by autologous BCL, they induced higher levels of IFNγ. In addition, TCC21.1 also released GM-CSF and IL-3 in response to GDP-L-fucose synthase peptides. The release of these two cytokines seems to be a specific feature of this TCC compared with other Th1, Th1* or Th1/2 TLCs that were generated from patients with different conditions. Intracellular cytokine staining confirmed the Th2 functional phenotype of TCC21.1 in response to GDP-L-fucose synthase (96-105, SEQ ID NO: 16). More than 60% of TCC21.1 cells were IL-4+ after stimulation with GDP-L-fucose synthase (96-105, SEQ ID NO: 16), while only around 12% were IFNγ+. Around 60% of the cells were GM-CSF+ and 47.7% of these also IL-4+.
For intracellular cytokine staining, TCC21.1 was analyzed 48 h after stimulation. After 5 h in presence of GolgiStop protein transport inhibitor (BD Biosciences), T cells were labeled with Live/Dead® Aqua (Invitrogen). Following fixation and permeabilization with Cytofix/Cytoperm (BD Biosciences), cells were stained with antibodies against CD4 (APC-Cy7, Biolegend), IFN-γ (FITC, Biolegend), IL-4 (PE, BD Bioscience), GM-CSF (APC, Biolegend) and IL-3 (PE, Biolegend) in PBS containing saponin and BSA, and analyzed by flow cytometry.

Ends that are not written are not given here.

For the sequence “VHMNDNVLHSAFEVG (listed as Homo sapiens) [SEQ ID NO: 14]”, in the experiment on TCC21.1 [1], the “recognition by TCC21.1 (proliferation)” value is given as “recognized”.

As to LVRYWISAFP [SEQ ID NO: 33, LVRYWISAFP], the “cytokine secretion by TCC14” value in the experiment on TCC14 [2] is “secretion of Th2 cytokines and also of IFN-γ”. In addition, in the experiment with TCC14 [3], the 50% effective concentration (EC50) (as a rule, the concentration that produces a half-maximal response) worked out at 12 nM.

Take NVLHSAFEVG [SEQ ID NO: 16, NVLHSAFEVG]: a half-maximal response in the experiment on TCC21.1 [4] (EC50) required 0.2 µg/mL. Also, in the experiment with TCC21.1 [5], the “GM-CSF+ TCC21.1 cells also IL-4+” value was 47.7%, the “TCC21.1 cells GM-CSF+” value is reported as “Around 60%”, the “TCC21.1 cells IFNγ+” value is given as “around 12%” and the “TCC21.1 cells IL-4+” value is “More than 60%”.

Turning to “NVLHSAFEVGARKVV (listed as Homo sapiens) [SEQ ID NO: 17]”, the “recognition by TCC21.1 (proliferation)” value in the experiment with TCC21.1 [1] was “recognized”.

As to “VLHSAFEVGA (listed as Homo sapiens) [SEQ ID NO: 18]”, the “GM-CSF release by TCC21.1 (stimulatory capacity)” value in the experiment with TCC21.1 [4] (individual decapeptides at 5 pg/ml, presented by BLS cells expressing DRB1*15:01) was “induced GM-CSF release”.
